Test results: patent publication US4250183A, “N-(Substituted amino)alkanoyl-aminoalkanoic acids and salts, their use and their compositions” (BYK Gulden Lomberg Chemische Fabrik GmbH, priority 1977, dated 1981)

Tests used:
[1] = Influence on the pancreatic secretion of the narcotized rat after intraduodenal application; assay type: in vivo, rat (male Sprague-Dawley); conditions: in vivo; Table I; LD50 mouse i.p. / ED50 pancreatic secretion rat i.d.; read-out: TQ (LD50/ED50), pancreatic secretion
Description: (§1) Influence on the Pancreatic and Bile Secretion of the Narcotized Rat Carrying out the Test
(§2) Male Sprague-Dawley rats (250 to 300 g body weight) are narcotized with 1.2 g/kg urethane i.m. Then the abdominal cavity is opened medially, the Ductus choledochus ligatured shortly above its entry into the duodenum and also near the liver joint, and both sections are catheterized towards the liver.
(§3) As in the case of the rat all pancreatic ducts lead into the center section of the Ductus choledochus; it is thus possible in this way to derive separately the pancreatic secreta from the distal (ligatured) section and the bile from the proximal section of the Ductus choledochus.
(§4) The separated quantities of pancreatic juice and bile juice are measured at intervals of 30 minutes during the period from before 2 hours to 3 hours after the intraduodenal […] administration of the compounds to be tested (volume of liquid administered 5 ml/kg).
(§5) The body temperature of the animals is maintained at from 36° to 38° C. by means of electric blankets and radiation; the monitoring of the temperature is carried out rectally.
(§6) The liquid volumes of the 30-minute fractions after the administration of the product are related in each case to the quantity of bile or pancreatic juice secreted prior to the application of the substance (=100%, mean of the two last measurements). The maximum percentage increase of the pancreatic or bile secretion is plotted against the dose and, from this, the ED50 is determined by interpolation.

pancreatic secretion = experiment: as above; assay type: in vivo, rat (male Sprague-Dawley); conditions: Rattus norvegicus, 0.5 h, read-out: Pancreatic Secretion ED50 (dose which brings about an increase in the pancreatic secretion by a maximum of 50%)
Description: as §1, §2, §3, §4, §5, §6

in vivo = conditions: mouse, ip
Description: (§7) The animals (5 animals per dose) are given food and water ad lib. Different dosages of the substances are administered intraperitoneally. The duration of observation is 14 days.

[2] = Influence on the bile secretion (choleresis) of the narcotized rat after intraduodenal application; assay type: in vivo, rat (male Sprague-Dawley); conditions: in vivo; Table II; LD50 mouse i.p. / ED50 bile secretion rat i.d.; read-out: TQ (LD50/ED50), bile secretion
Description: as §1, §2, §3, §4, §5, §6

bile secretion = experiment: as above; assay type: in vivo, rat (male Sprague-Dawley); conditions: Rattus norvegicus, 0.5 h, read-out: Bile Secretion ED50 (dose which brings about an increase in the bile secretion by a maximum of 50%)
Description: as §1, §2, §3, §4, §5, §6

female NMRI mice = experiment: Determination of the toxicity, lethal effect on the mouse after intraperitoneal application; conditions: Table II, i.p., 14 days observation;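 note: mice received several intraperitoneal dose levels, five animals per level, and were followed for 14 days to estimate the lethal dose for half the animals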
Description: as §7

Row | Compound | selectivity ratio [1] | ED50 (pancreatic secretion) [mg/kg] | LD50 at 336 h (in vivo) [mg/kg] | selectivity ratio [2] | ED50 (bile secretion) [mg/kg] | Toxicity LD50 (female NMRI mice) [mg/kg]
1 | COc1ccc(N(CC(=O)NCCC(=O)O)C(=O)c2ccc(Cl)cc2)cc1 [Serial No. 5, N-[N-(p-chlorobenzoyl)-2-(p-anisidino)acetyl]-3-aminopropionic acid] | 52 | 25 | 1300 |  |  | 
2 | COc1ccc(N(CCCC(=O)O)C(=O)CCCN(C(=O)c2ccc(Cl)cc2)c2c(C)cccc2C)cc1 [Serial No. 13, N-[N-(p-chlorobenzoyl)-4-(2,6-dimethylanilino)butyryl]-4-(p-anisidino)butyric acid] | 188 | 0.8 | 150 |  |  | 
3 | COc1ccc(N(CCCC(=O)O)C(=O)CCN(C(=O)c2ccc(Cl)cc2)c2ccc(OC)cc2)cc1 [Serial No. 10, N-[N-(p-chlorobenzoyl)-3-(p-anisidino)propionyl]-4-(p-anisidino)butyric acid] | ~220 | ~1 | 220 |  |  | 
4 | CCc1cccc(CC)c1N(CCCC(=O)O)C(=O)CCN(C(C)=O)c1c(C)cccc1C [Serial No. 21, N-[N-acetyl-3-(2,6-dimethylanilino)propionyl]-4-(2,6-diethylanilino)butyric acid] |  |  | 280 | ~280 | ~1 | 
5 | COc1ccc(N(CCCC(=O)O)C(=O)[C@H](CCSC)NC(=O)c2ccc(Cl)cc2)cc1 [Serial No. 23, N-[N-(p-chlorobenzoyl)methionyl]-4-(p-anisidino)butyric acid] |  |  | 700 | 280 | 2.5 | 
6 | COc1ccc(N(CCCC(=O)O)C(=O)CCN(C(C)=O)c2c(C)cccc2C)cc1 [Serial No. 20, N-[N-acetyl-3-(2,6-dimethylanilino)propionyl]-4-(p-anisidino)butyric acid] | 86 | 7 | 600 | 86 | 7 | 
7 | COc1cc(C(=O)N(CCCC(=O)NCCCC(=O)O)c2c(C)cccc2C)cc(OC)c1OC [Serial No. 15, N-[N-(3,4,5-trimethoxybenzoyl)-4-(2,6-dimethylanilino)butyryl]-4-aminobutyric acid] | ~800 | ~1 | 800 |  |  | 
8 | Cc1cccc(C)c1N(CCCC(=O)NCCCC(=O)O)C(=O)c1ccc(Cl)cc1 [Serial No. 14, N-[N-(p-chlorobenzoyl)-4-(2,6-dimethylanilino)butyryl]-4-aminobutyric acid] | 1000 | 0.4 | 400 |  |  | 
9 | COc1ccc(N(CC(=O)NCC(=O)O)C(=O)c2ccc(Cl)cc2)cc1 [Serial No. 4, N-[N-(p-chlorobenzoyl)-2-(p-anisidino)acetyl]glycine] | > 67 | 15 | > 1000 |  |  | 
10 | COc1ccc(N(CC(=O)N(CCCC(=O)O)c2ccc(OC)cc2)C(C)=O)cc1 [Serial No. 8, N-[N-acetyl-2-(p-anisidino)acetyl]-4-(p-anisidino)butyric acid] | 1200 | 1 | 1200 |  |  | 
11 | Cc1cccc(C)c1N(CCCC(=O)O)C(=O)CCCN(C(=O)c1ccc(Cl)cc1)c1c(C)cccc1C [Serial No. 11, N-[N-(p-chlorobenzoyl)-4-(2,6-dimethylanilino)butyryl]-4-(2,6-dimethylanilino)butyric acid] | 130 | 1 | 130 | 43 | 3 | 
12 | COc1ccc(N(CC(=O)N(C)CC(=O)O)C(=O)c2ccc(Cl)cc2)cc1 [Serial No. 3, N-[N-(p-chlorobenzoyl)-2-(p-anisidino)acetyl]sarcosine] | > 67 | 15 | > 1000 |  |  | 
13 | COc1ccc(N(CCCC(=O)O)C(=O)CCN(C(=O)c2ccc(Cl)cc2)c2c(C)cccc2C)cc1 [Serial No. 25, N-[N-(p-chlorobenzoyl)-3-(2,6-dimethylanilino)propionyl]-4-(p-anisidino)butyric acid] |  |  | 60 | ~60 | ~1 | 
14 | COc1ccc(N(CCCC(=O)N(CCCC(=O)O)c2c(C)cccc2C)C(=O)c2ccc(Cl)cc2)cc1 [Serial No. 12, N-[N-(p-chlorobenzoyl)-4-(p-anisidino)butyryl]-4-(2,6-dimethylanilino)butyric acid] | 400 | 2 | 800 | 57 | 14 | 
15 | Cc1cccc(C)c1N(CCCC(=O)N(C)CC(=O)O)C(=O)c1ccc(Cl)cc1 [Serial No. 2, N-[N-(p-chlorobenzoyl)-4-(2,6-dimethylanilino)butyryl]sarcosine] | 70 | 10 | 700 |  |  | 
16 | COc1ccc(C(=O)N[C@@H](Cc2ccccc2)C(=O)N(CCCC(=O)O)c2ccc(OC)cc2)cc1 [Serial No. 24, N-[N-(p-methoxybenzoyl)phenylalanyl]-4-(p-anisidino)butyric acid] | 50 | 6 | 300 | 50 | 6 | 
17 | COc1ccc(N(CCCC(=O)O)C(=O)C(C)N(C(C)=O)c2ccc(OC)cc2)cc1 (centres unmarked) [Serial No. 16, N-[N-acetyl-2-(p-anisidino)propionyl]-4-(p-anisidino)butyric acid] |  |  | 600 | 60 | 10 | 
18 | COc1ccc(N(CCCC(=O)O)C(=O)C(C)N(C(=O)c2ccc(Cl)cc2)c2ccc(OC)cc2)cc1 (centres unmarked) [Serial No. 18, N-[N-(p-chlorobenzoyl)-2-(p-anisidino)propionyl]-4-(p-anisidino)butyric acid] | ≤ 50 | 5 | ≤ 250 | ≤ 36 | 7 | ≤ 250
19 | COc1ccc(N(CCCC(=O)O)C(=O)CN(C(=O)c2ccc(Cl)cc2)c2ccc(OC)cc2)cc1 [Serial No. 9, N-[N-(p-chlorobenzoyl)-2-(p-anisidino)acetyl]-4-(p-anisidino)butyric acid] | 140 | 3 | 420 |  |  | 
20 | Cc1cccc(C)c1N(CC(=O)NCCC(=O)O)C(=O)c1ccc(Cl)cc1 [Serial No. 7, N-[N-(p-chlorobenzoyl)-2-(2,6-dimethylanilino)acetyl]-3-aminopropionic acid] | ≥ 450 | ≤ 1 | 450 | 45 | 10 | 
21 | COc1ccc(N(CCCC(=O)O)C(=O)C(C)N(C(=O)c2ccco2)c2ccc(OC)cc2)cc1 (centres unmarked) [Serial No. 17, N-[N-(2-furoyl)-2-(p-anisidino)propionyl]-4-(p-anisidino)butyric acid] | 150 | 5 | 750 | 68 | 11 | 
22 | Cc1cccc(C)c1N(CC(=O)NCC(=O)O)C(=O)c1ccc(Cl)cc1 [Serial No. 6, N-[N-(p-chlorobenzoyl)-2-(2,6-dimethylanilino)acetyl]glycine] | ~80 | ~5 | 400 |  |  | 
23 | CCc1cccc(C)c1N(CCCC(=O)O)C(=O)CCN(C(C)=O)c1c(C)cccc1C [Serial No. 22, N-[N-acetyl-3-(2,6-dimethylanilino)propionyl]-4-(2-ethyl-6-methylanilino)butyric acid] | 143 | 3 | 430 | 331 | 1.3 | 
